Test [1] deals with Rhesus PDE2A3 (Macaca mulatta, UniProt B3VTJ2). In words: PDE2 fluorescence polarization (IMAP FP) assay, rhesus PDE2A3. The test is classed as biochemical, rhesus macaque. Conditions: Lab B, read-out: Rhesus PDE2 Ki (nM) Lab B. A general note: Fluorescence polarisation rises when a labelled molecule tumbles more slowly, as on binding a larger partner.
In test [2] the target is human PDE2A1 (Homo sapiens (Human), UniProt O00408). In words: PDE selectivity IMAP FP assay, human PDE2A1. Conditions: Human PDE2; Lab B; read-out: Human PDE2 Ki (nM) Lab B. The test is classed as biochemical. The procedure, abridged:
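Compound titrations run against PDE2 in Tris HCl pH 7.2 buffer with MgCl2 and DTT for 60 min at room temperature, using 50 nM FAM-cAMP plus 1000 nM cGMP and enzyme giving 20% conversion.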

SMILES strings stand for the structures.

Rhesus PDE2A3, sequence (B3VTJ2 1-941): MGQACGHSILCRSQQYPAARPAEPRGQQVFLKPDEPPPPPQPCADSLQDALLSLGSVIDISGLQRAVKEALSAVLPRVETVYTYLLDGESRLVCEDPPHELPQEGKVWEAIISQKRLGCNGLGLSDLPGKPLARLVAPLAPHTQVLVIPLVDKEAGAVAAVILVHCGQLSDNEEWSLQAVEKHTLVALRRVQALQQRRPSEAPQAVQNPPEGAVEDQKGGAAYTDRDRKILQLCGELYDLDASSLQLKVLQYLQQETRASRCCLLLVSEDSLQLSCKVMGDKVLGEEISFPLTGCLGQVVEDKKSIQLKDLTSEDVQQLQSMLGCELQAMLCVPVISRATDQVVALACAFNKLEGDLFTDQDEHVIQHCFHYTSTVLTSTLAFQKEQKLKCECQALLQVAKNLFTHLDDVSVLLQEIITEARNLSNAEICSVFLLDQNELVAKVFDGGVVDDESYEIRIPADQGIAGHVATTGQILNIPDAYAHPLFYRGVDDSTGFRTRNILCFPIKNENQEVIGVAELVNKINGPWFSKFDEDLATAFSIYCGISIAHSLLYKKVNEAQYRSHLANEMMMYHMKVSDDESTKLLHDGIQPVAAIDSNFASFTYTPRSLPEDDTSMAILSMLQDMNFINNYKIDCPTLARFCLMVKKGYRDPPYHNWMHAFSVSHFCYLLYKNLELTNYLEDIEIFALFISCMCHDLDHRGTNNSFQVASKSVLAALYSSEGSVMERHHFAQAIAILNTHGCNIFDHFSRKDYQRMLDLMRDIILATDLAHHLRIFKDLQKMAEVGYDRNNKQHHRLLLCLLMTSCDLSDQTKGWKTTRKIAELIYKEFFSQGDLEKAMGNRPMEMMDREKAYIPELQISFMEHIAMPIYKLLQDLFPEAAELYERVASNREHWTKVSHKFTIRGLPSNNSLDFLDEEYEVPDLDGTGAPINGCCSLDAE
human PDE2A1, sequence (O00408 other isoform, or with tags, fused parts or gaps): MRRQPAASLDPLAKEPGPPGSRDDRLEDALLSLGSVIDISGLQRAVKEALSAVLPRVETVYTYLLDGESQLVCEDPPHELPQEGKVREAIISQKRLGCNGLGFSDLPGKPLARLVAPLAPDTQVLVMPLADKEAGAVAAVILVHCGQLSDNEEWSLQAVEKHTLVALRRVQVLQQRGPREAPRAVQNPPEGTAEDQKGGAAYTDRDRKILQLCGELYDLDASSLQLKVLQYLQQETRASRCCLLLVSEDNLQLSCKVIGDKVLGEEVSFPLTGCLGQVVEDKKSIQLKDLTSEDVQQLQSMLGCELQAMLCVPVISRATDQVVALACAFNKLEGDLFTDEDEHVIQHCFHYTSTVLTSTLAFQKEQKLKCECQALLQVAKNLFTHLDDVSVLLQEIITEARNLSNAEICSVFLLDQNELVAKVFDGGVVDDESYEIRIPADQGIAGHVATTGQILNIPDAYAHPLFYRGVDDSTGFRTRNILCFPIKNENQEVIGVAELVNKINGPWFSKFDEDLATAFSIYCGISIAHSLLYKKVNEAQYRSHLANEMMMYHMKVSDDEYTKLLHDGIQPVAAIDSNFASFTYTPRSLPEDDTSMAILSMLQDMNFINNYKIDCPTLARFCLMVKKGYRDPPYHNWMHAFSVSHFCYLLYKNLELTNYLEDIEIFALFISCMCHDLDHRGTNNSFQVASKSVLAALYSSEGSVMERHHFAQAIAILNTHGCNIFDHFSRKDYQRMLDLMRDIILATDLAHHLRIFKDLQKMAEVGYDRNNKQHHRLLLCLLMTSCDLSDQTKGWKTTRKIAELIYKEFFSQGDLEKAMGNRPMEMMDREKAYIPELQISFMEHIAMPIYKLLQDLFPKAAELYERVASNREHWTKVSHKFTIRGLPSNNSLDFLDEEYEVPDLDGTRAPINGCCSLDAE

What is called Ki is the dissociation constant of the complex between target and ligand, obtained from inhibition or displacement. Turning to `CC(c1ccc(C(C)(F)F)c(F)c1)n1nc(CO)c2c(=O)[nH]c(N(C)C)nc21` (single isomer, unassigned) [Example 106, (R)- or (S)-1-(1-(4-(1,1-Difluoroethyl)-3-fluorophenyl)ethyl)-6-(dimethylamino)-3-(hydroxymethyl)-1H-pyrazolo[3,4-d]pyrimidin-4(5H)-one], the inhibition constant (Ki) in test [1] worked out at 6.2 nM; in test [2], 3.6 nM.
Take `CC(c1ccc(C(C)(F)F)c(F)c1)n1nc(CO)c2c(=O)[nH]c(N(C)C)nc21` (single isomer, unassigned) [Example 107, (S)- or (R)-1-(1-(4-(1,1-Difluoroethyl)-3-fluorophenyl)ethyl)-6-(dimethylamino)-3-(hydroxymethyl)-1H-pyrazolo[3,4-d]pyrimidin-4(5H)-one]: the Ki in test [1] and in test [2] was 0.12 nM each time.
For `CC(c1ccc(C(C)(F)F)cc1F)n1nc(CO)c2c(=O)[nH]c(N(C)C)nc21` (single isomer, unassigned) [Example 108, (R)- or (S)-1-(1-(4-(1,1-DiHuoroethyl)-2-fluoroplienyl)ethyl)-6-(dimethylamino)-3-(hydroxymethyl)-1H-pyrazolo[3,4-d]pyrimidin-4(5H)-one], the Ki in test [1] was 0.18 nM; in test [2], 0.23 nM.
For `CCC(c1ccc(C(C)(F)F)cc1F)n1nc(CO)c2c(=O)[nH]c(N(C)C)nc21` (single isomer, unassigned) [Example 111, (S)- or (R)-1-(1-(4-(1,1-Difluoroethyl)-2-fluorophenyl)propyl)-6-(dimethylamino)-3-(hydroxymethyl)-1H-pyrazolo[3,4-d]pyrimidin-4(5H)-one], in that order: 0.14 nM and 0.12 nM.
On the same counts, the results for `CCC(c1ccc(C(C)(F)F)c(F)c1)n1nc(CO)c2c(=O)[nH]c(N(C)C)nc21` (single isomer, unassigned) [Example 112, (R)- or (S)-1-(1-(4-(1,1-Difluoroethyl)-3-fluorophenyl)propyl)-6-(dimethylamino)-3-(hydroxymethyl)-1H-pyrazolo[3,4-d]pyrimidin-4(5H)-one] are 1.1 nM and 0.84 nM.
On the same counts, the results for `CCC(c1ccc(C(C)(F)F)c(F)c1)n1nc(CO)c2c(=O)[nH]c(N(C)C)nc21` (single isomer, unassigned) [Example 113] are 0.055 nM and 0.057 nM.
Take `CC(C)C(c1ccc(C(F)F)c(F)c1)n1nc(CO)c2c(=O)[nH]c(N(C)C)nc21` (single isomer, unassigned) [Example 114]: the Ki in test [1] came to 0.71 nM; in test [2], 0.79 nM.
On the same counts, the results for `CC(C)C(c1ccc(C(C)(F)F)c(F)c1)n1nc(CO)c2c(=O)[nH]c(N(C)C)nc21` (single isomer, unassigned) [Example 116, (R)- or (S)-1-(1-(4-(1,1-Difluoroethyl)-3-fluorophenyl)-2-methylpropyl)-6-(dimethylamino)-3-(hydroxymethyl)-1H-pyrazolo[3,4-d]pyrimidin-4(5H)-one] are 0.16 nM and 0.13 nM.
On the same counts, the results for `CC(C)C(c1ccc(C(C)(F)F)c(F)c1)n1nc(CO)c2c(=O)[nH]c(N(C)C)nc21` (single isomer, unassigned) [Example 117, (R)- or (S)-1-(1-(4-(1,1-Difluoroethyl)-3-fluorophenyl)-2-methylpropyl)-6-(dimethylamino)-3-(hydroxymethyl)-1H-pyrazolo[3,4-d]pyrimidin-4(5H)-one] are 0.025 nM and 0.017 nM.
For `CC(C)C(c1ccc(C(C)(F)F)cc1F)n1nc(CO)c2c(=O)[nH]c(N(C)C)nc21` (single isomer, unassigned) [Example 118, (R)- or (S)-1-(1-(4-(1,1-Difluoroethyl)-2-fluorophenyl)-2-methylpropyl)-6-(dimethylamino)-3-(hydroxymethyl)-1H-pyrazolo[3,4-d]pyrimidin-4(5H)-one], the Ki is 0.44 nM in test [1] and 0.42 nM in test [2].
As to `CC(C)C(c1ccc(C(C)(F)F)cc1F)n1nc(CO)c2c(=O)[nH]c(N(C)C)nc21` (single isomer, unassigned) [Example 119, (S)- or (R)-(1-(4-(1,1-Difluoroethyl)-2-fluorophenyl)-2-methylpropyl)-6-(dimethylamino)-3-(hydroxymethyl)-1H-pyrazolo[3,4-d]pyrimidin-4(5H)-one], the Ki in test [1] came to 0.036 nM; in test [2] it was 0.024 nM.
For `CC(C)C(c1ccc(OC(F)F)cc1)n1nc(CO)c2c(=O)[nH]c(N(C)C)nc21` (single isomer, unassigned) [Example 120], in that order: 0.28 nM and 0.21 nM.
On the same counts, the results for `CC(C)C(c1ccc(OC(F)F)cc1)n1nc(CO)c2c(=O)[nH]c(N(C)C)nc21` (single isomer, unassigned) [Example 121] are 0.31 nM and 0.34 nM.
On the same counts, the results for `CN(C)c1nc2c(c(CO)nn2C(c2ccc(OC(F)F)c(F)c2)C2CC2)c(=O)[nH]1` (single isomer, unassigned) [Example 122, (R)- or (S)-1-(Cyclopropyl(4-(difluoromethoxy)-3-fluorophenyl)methyl)-6-(dimethylamino)-3-(hydroxymethyl)-1H-pyrazolo[3,4-d]pyrimidin-4(5H)-one] are 0.37 nM and 0.3 nM.
For `CN(C)c1nc2c(c(CO)nn2C(c2ccc(OC(F)F)c(F)c2)C2CC2)c(=O)[nH]1` (single isomer, unassigned) [Example 123, (S)- or (R)-1-(Cyclopropyl(4-(difluoromethoxy)-3-fluorophenyl)methyl)-6-(dimethylamino)-3-(hydroxymethyl)-1H-pyrazolo[3,4-d]pyrimidin-4(5H)-one], the Ki in test [1] came out at 0.61 nM; in test [2], 0.6 nM.
On to `CCC(c1ccc(OC(F)F)cc1)n1nc(CO)c2c(=O)[nH]c(N(C)C)nc21` (single isomer, unassigned) [Example 124, (R)- or (S)-1-(1-(4-(Difluoromethoxy)phenyl)propyl)-6-(dimethylamino)-3-(hydroxymethyl)-1H-pyrazolo[3,4-d]pyrimidin-4(5H)-one], for which the Ki in test [1] was found to be 0.7 nM; in test [2] it was 0.73 nM.
For `CCC(c1ccc(OC(F)F)c(F)c1)n1nc(CO)c2c(=O)[nH]c(N(C)C)nc21` (single isomer, unassigned) [Example 126, (R)- or (S)-1-(1-(4-(Difluoromethoxy)-3-fluorophenyl)propyl)-6-(dimethylamino)-3-(hydroxymethyl)-1H-pyrazolo[3,4-d]pyrimidin-4(5H)-one], in that order: 0.45 nM and 0.3 nM.
On the same counts, the results for `CCC(c1ccc(OC(F)F)c(F)c1)n1nc(CO)c2c(=O)[nH]c(N(C)C)nc21` (single isomer, unassigned) [Example 127, (S)- or (R)-1-(1-(4-(Difluoromethoxy)-3-fluorophenyl)propyl)-6-(dimethylamino)-3-(hydroxymethyl)-1H-pyrazolo[3,4-d]pyrimidin-4(5H)-one] are 1.4 nM and 0.81 nM.
For `CN(C)c1nc2c(c(CO)nn2C(c2ccc(OC(F)F)cc2)C2CC2)c(=O)[nH]1` (single isomer, unassigned) [Example 128, (R)- or (S)-1-(Cyclopropyl(4-(difluoromethoxy)phenyl)methyl)-6-(dimethylamino)-3-(hydroxymethyl)-1H-pyrazolo[3,4-d]pyrimidin-4(5H)-one], the Ki worked out at 0.55 nM in test [1] and 0.5 nM in test [2].
On the same counts, the results for `CN(C)c1nc2c(c(CO)nn2C(c2ccc(OC(F)F)cc2)C2CC2)c(=O)[nH]1` (single isomer, unassigned) [Example 129, (S)- or (R)-(Cyclopropyl(4-(difluoromethoxy)phenyl)methyl)-6-(dimethylamino)-3-(hydroxymethyl)-1H-pyrazolo[3,4-d]pyrimidin-4(5H)-one] are 1 nM and 0.55 nM.
For `CCC(c1ccc(C(F)(F)F)cc1F)n1nc(CO)c2c(=O)[nH]c(N(C)C)nc21` (single isomer, unassigned) [Example 130, (R)- or (S)-6-(Dimethylamino)-1-(1-(2-fluoro-4-(trifluoromethyl)phenyl)propyl)-3-(hydroxymethyl)-1H-pyrazolo[3,4-d]pyrimidin-4(5H)-one], in that order: 0.12 nM and 0.071 nM.
For `CC(C)C(c1ccc(C(F)(F)F)cc1F)n1nc(CO)c2c(=O)[nH]c(N(C)C)nc21` (single isomer, unassigned) [Example 132, (R)- or (S)-6-(Dimethylamino)-1-(1-(2-fluoro-4-(trifluoromethyl)phenyl)-2-methylpropyl)-3-(hydroxymethyl)-1H-pyrazolo[3,4-d]pyrimidin-4(5H)-one], in that order: 0.059 nM and 0.04 nM.
As to `CC(C)C(c1ccc(C(F)(F)F)cc1F)n1nc(CO)c2c(=O)[nH]c(N(C)C)nc21` (single isomer, unassigned) [Example 133, (S)- or (R)-6-(Dimethylamino)-1-(1-(2-fluoro-4-(trifluoromethyl)phenyl)-2-methylpropyl)-3-(hydroxymethyl)-1H-pyrazolo[3,4-d]pyrimidin-4(5H)-one], the Ki in test [1] came to 0.6 nM; in test [2] it was 0.45 nM.
For the molecule `CN(C)c1nc2c(c(CO)nn2C(c2ccc(C(F)(F)F)cc2F)C2CC2)c(=O)[nH]1` (single isomer, unassigned) [Example 134, (R)- or (S)-1-(Cyclopropyl(2-fluoro-4-(trifluoromethyl)phenyl)methyl)-6-(dimethylamino)-3-(hydroxymethyl)-1H-pyrazolo[3,4-d]pyrimidin-4(5H)-one], the Ki came out at 0.05 nM in test [1] and 0.047 nM in test [2].

The values above are taken from patent US10174037B2, “Dihydropyrazolopyrimidinone compounds as PDE2 inhibitors” (Merck Sharp & Dohme Corp., priority 2015, dated 2019).
